Read-outs that look alike come from different tables or passages of the source.
Experiments:
white rat females = settings: in vivo; for Total died: 14 days
[1] = system: erythroid cells isolated from the bone marrow of gamma-irradiated laboratory mice males; assay: Radioprotective properties (micronucleus test after gamma irradiation); settings: mice irradiated with gamma rays 1.3 Gy, then fed 48 h succinic acid 20 mg/kg body wt.; critical value 16±2
Wistar rat males = settings: 1.5 ml of 1% succinic acid perorally 10 min prior; for Eosinophils, 6 h after / Lymphocytes, 6 h after / Number of leukocytes in 1 μl of blood, 6 h after / Segmentated cells, 6 h after: 6 h after immobilization; for Eosinophils, before / Lymphocytes, before / Number of leukocytes in 1 μl of blood, before / Segmentated cells, before: at the moment of immobilization
Method: Examples, illustrating the method invented, are presented below. […] SA is tested on rats endured an immobilization stress; the parameter tested is lymphocytic composition of blood, which is determined before and after stress in a blood smear taken from the caudal vein. […] A detailed description of the testing technique is given in Example 13.
The animals were fixed while lying flat on their back, with their legs secured. […] Blood was taken from the caudal vein: 10 μl for counting blood corpuscles and 20 μl for preparing a smear with its subsequent staining by Romanovsky-Giemsa).
First group: 10 min prior immobilization, the animals were injected (perorally, with the help of a stomach pump) with 1.5 ml of 1% starch solution. […] Blood was taken from the caudal vein at the moment of immobilization and 6 hours later, and stained blood smears were prepared to calculate the leukogram.

[2] = system: patients with cardiac insufficiency; settings: for patients of functional class I, day 30 / patients of functional class II, day 30 / patients of functional class III, day 30 / patients of functional class IV, day 30 / patients of functional class I, day 60 / patients of functional class II, day 60 / patients of functional class III, day 60 / patients of functional class IV, day 60 / patients of functional class I, day 90 / patients of functional class II, day 90 / patients of functional class III, day 90 / patients of functional class IV, day 90: 100 mg twice per day with standard therapy; for patients of functional class I, day 30 / patients of functional class II, day 30 / patients of functional class III, day 30 / patients of functional class IV, day 30: after 30 days; for patients of functional class I, day 60 / patients of functional class II, day 60 / patients of functional class III, day 60 / patients of functional class IV, day 60: after 60 days; for patients of functional class I, day 90 / patients of functional class II, day 90 / patients of functional class III, day 90 / patients of functional class IV, day 90: after 90 days; for patients of functional class I, day 0 / patients of functional class II, day 0 / patients of functional class III, day 0 / patients of functional class IV, day 0: 100 mg twice per day, 3 months, with standard therapy, before treatment
Method: The test for cardiotonic activity of product samples was performed by measuring the dynamics of alteration of the functional class of cardiac failure. The functional class can be determined quite accurately by analyzing the everyday life activities according to a specific activity scale. The authors of this technique suppose that the criteria developed by NYHA (New York Heart Association) cannot provide accurate determination of functional class, since widely used terms, such as “everyday physical activity”, “sub-everyday activity” are not specific. On the basis of multiple tests, in which patients exercised on a treadmill, the authors calculated a scale of metabolic expenses for each kind of life activity (see Goldman L., Hashimoto B., Cook F. et al., Comparative reproducibility and validity of systems for assessing cardiovascular functional class: advantages of a new specific activity scale (1981) Circulation 64 (6):1227-34). This inquiry is designed to be used by medical personnel, interviewing a patient. After calculating the sum of possible energy expenses, the functional class of the patient is determined according to the summary criteria of the specific activity scale (Table 6).
In the tests, the patient groups were formed so that the people of the same functional class were equally distributed among different groups. Severe patients (of IV functional class; those having oncological diseases or suffered myocardial infarction/stroke to the brain 60 days or less before) were not admitted to the tests. The distribution of patients among groups was governed by a random number generator. The tests were carried out by the following protocol. Each patient took 100 mg of the preparation twice per day (in the morning and after lunch) during 3 months—against the background of a standard therapy administered by a physician. […] All the samples and placebo were encoded before sending into the clinic, so none of those involved into the tests (patients, physicians, medical personnel and the manager of tests) was aware of the nature of samples.
The functional class of patients was determined several times: at the beginning of tests (before the formation of test groups) and after 30, 60 and 90 days of treatment with the test samples. The estimation was performed on the basis of the activity scale (Table 7).

[3] = system: erythroid cells isolated from the bone marrow of laboratory mice males; settings: feed with succinic acid 20 mg/kg body wt., not irradiated, norm 5.0±1.0
Method: The test for genotoxicity was performed on young laboratory mice males (18-20 g; 6 animals in each group). […] The control animals were given water.

With `O=C(O)CCC(=O)O` [Example 1, succinic acid, reference compound] the Total died (white rat females; female, 5000 mg/kg) was 0, the “animals died, extra test with doubled dose” value (white rat females; 10000 mg/kg) was “Not a single animal died” and the “Number of micronuclei per 2000 cells (radioprotective properties)” value [1] was 25.5 ± 1.0. For the same compound, the “Eosinophils, 6 h after” value (Wistar rat males; listed as Ex. 1) was 0%, the “Lymphocytes, 6 h after” value (Wistar rat males; listed as Ex. 1) was 69 ± 5% and the “Number of leukocytes in 1 μl of blood, 6 h after” value (shortened to “Number of leukocytes … 6 h after”) (Wistar rat males; listed as Ex. 1) was 7900. The “Segmentated cells, 6 h after” value (Wistar rat males; listed as Ex. 1) was 29 ± 3%, the “Eosinophils, before” value (Wistar rat males; listed as Ex. 1) was 2 ± 4% and the “Lymphocytes, before” value (Wistar rat males; listed as Ex. 1) was 78 ± 4%. For the same compound, the “Number of leukocytes in 1 μl of blood, before” value (from here on “Number of leukocytes … before”) (Wistar rat males; listed as Ex. 1) was 5900, the “Segmentated cells, before” value (Wistar rat males; listed as Ex. 1) was 21 ± 2% and the “patients of functional class I, day 30” value [2] was 8. The “patients of functional class II, day 30” value [2] was 7, the “patients of functional class III, day 30” value [2] was 5 and the “patients of functional class IV, day 30” value [2] was 0. The “patients of functional class I, day 60” value [2] was 9, the “patients of functional class II, day 60” value [2] was 6 and the “patients of functional class III, day 60” value [2] was 5. For the same compound, the “patients of functional class IV, day 60” value [2] was 0, the “patients of functional class I, day 90” value [2] was 9 and the “patients of functional class II, day 90” value [2] was 7. The “patients of functional class III, day 90” value [2] was 4, the “patients of functional class IV, day 90” value [2] was 0 and the “patients of functional class I, day 0” value [2] was 8. For the same compound, the “patients of functional class II, day 0” value [2] was 7, the “patients of functional class III, day 0” value [2] was 5 and the “patients of functional class IV, day 0” value [2] was 0. The “Number of micronuclei per 2000 cells (genotoxicity)” value [3] was 5.5 ± 0.8.
For `O=C(O)CCC(=O)O` [Example 4, succinic acid], the “died, 12 day” value (white rat females; female, 5000 mg/kg, 12 day) was 1, the “died, 13 day” value (white rat females; female, 5000 mg/kg) was 1 and the “died, 14 day” value (white rat females; female, 5000 mg/kg) was 1. For the same compound, the Total died (white rat females; female, 5000 mg/kg) was 3, the “Number of micronuclei per 2000 cells (radioprotective properties)” value [1] was 12.5 ± 2.0 and the “Eosinophils, 6 h after” value (Wistar rat males; listed as Ex. 4) was 1.5 ± 6%. The “Lymphocytes, 6 h after” value (Wistar rat males; listed as Ex. 4) was 74 ± 8%, the “Number of leukocytes … 6 h after” value (Wistar rat males; listed as Ex. 4) was 7100 and the “Segmentated cells, 6 h after” value (Wistar rat males; listed as Ex. 4) was 24 ± 3%. For the same compound, the “Eosinophils, before” value (Wistar rat males; listed as Ex. 4) was 2 ± 4%, the “Lymphocytes, before” value (Wistar rat males; listed as Ex. 4) was 77 ± 4% and the “Number of leukocytes … before” value (Wistar rat males; listed as Ex. 4) was 5900. For the same compound, the “Segmentated cells, before” value (Wistar rat males; listed as Ex. 4) was 21 ± 2%, the “patients of functional class I, day 30” value [2] was 8 and the “patients of functional class II, day 30” value [2] was 7. For the same compound, the “patients of functional class III, day 30” value [2] was 5, the “patients of functional class IV, day 30” value [2] was 0 and the “patients of functional class I, day 60” value [2] was 9. For the same compound, the “patients of functional class II, day 60” value [2] was 9, the “patients of functional class III, day 60” value [2] was 3 and the “patients of functional class IV, day 60” value [2] was 0. The “patients of functional class I, day 90” value [2] was 13, the “patients of functional class II, day 90” value [2] was 6 and the “patients of functional class III, day 90” value [2] was 1. For the same compound, the “patients of functional class IV, day 90” value [2] was 0, the “patients of functional class I, day 0” value [2] was 8 and the “patients of functional class II, day 0” value [2] was 7. The “patients of functional class III, day 0” value [2] was 5, the “patients of functional class IV, day 0” value [2] was 0 and the “Number of micronuclei per 2000 cells (genotoxicity)” value [3] was 5.5 ± 1.0.
For `O=C(O)CCC(=O)O` [Example 5, succinic acid], the “died, 13 day” value (white rat females; female, 5000 mg/kg) was 2, the “died, 14 day” value (white rat females; female, 5000 mg/kg) was 1 and the Total died (white rat females; female, 5000 mg/kg) was 3. The “Number of micronuclei per 2000 cells (radioprotective properties)” value [1] was 12.0 ± 1.2, the “Eosinophils, 6 h after” value (Wistar rat males; listed as Ex. 5) was 1.5 ± 8% and the “Lymphocytes, 6 h after” value (Wistar rat males; listed as Ex. 5) was 75 ± 4%. The “Number of leukocytes … 6 h after” value (Wistar rat males; listed as Ex. 5) was 7200, the “Segmentated cells, 6 h after” value (Wistar rat males; listed as Ex. 5) was 24 ± 3% and the “Eosinophils, before” value (Wistar rat males; listed as Ex. 5) was 2 ± 6%. For the same compound, the “Lymphocytes, before” value (Wistar rat males; listed as Ex. 5) was 76 ± 5%, the “Number of leukocytes … before” value (Wistar rat males; listed as Ex. 5) was 6000 and the “Segmentated cells, before” value (Wistar rat males; listed as Ex. 5) was 22 ± 4%. The “patients of functional class I, day 30” value [2] was 8, the “patients of functional class II, day 30” value [2] was 7 and the “patients of functional class III, day 30” value [2] was 5. The “patients of functional class IV, day 30” value [2] was 0, the “patients of functional class I, day 60” value [2] was 9 and the “patients of functional class II, day 60” value [2] was 7. The “patients of functional class III, day 60” value [2] was 4, the “patients of functional class IV, day 60” value [2] was 0 and the “patients of functional class I, day 90” value [2] was 14. The “patients of functional class II, day 90” value [2] was 5, the “patients of functional class III, day 90” value [2] was 1 and the “patients of functional class IV, day 90” value [2] was 0. For the same compound, the “patients of functional class I, day 0” value [2] was 8, the “patients of functional class II, day 0” value [2] was 7 and the “patients of functional class III, day 0” value [2] was 5. The “patients of functional class IV, day 0” value [2] was 0 and the “Number of micronuclei per 2000 cells (genotoxicity)” value [3] was 5.0 ± 1.0.
